Reference: patent US20180110762A1, “Compositions Methods for Treating Chronic Kidney Disease” (Merck Sharp & Dohme Corp, priority 2015, published 2018)

Legend:
[1] = system: male obese ZSF1 rats (diabetic nephropathy model); assay: ZSF1 rat 28-week in-feed study: urinary protein (UPCR, 24 h excretion); type: in vivo; details: for 24 h Urinary Protein Excretion / UPCR (urinary protein/creatinine ratio): obese ZSF1 rats
Protocol: (§1) The effects of Compound A (“A”) on renal function, plasma triglycerides, plasma cholesterol, kidney collagen I, kidney collagen III, renal histology, glomerular filtration rate, fibrosis score, and mRNA gene expression (profibrotic genes and integrin β3) were evaluated in male obese ZSF1 rats (a hybrid F1 of Zucker diabetic fatty rat and spontaneously hypertensive heart failure rat; a diabetic nephropathy model) when administered as in-feed for 28 weeks. Sixty obese male ZSF1 rats were randomized to five groups: Obese control (n=12), Compound A 60 mpk (n=12), Compound A 200 mpk (n=12), Compound A 400 mpk (n=12), Enalapril 10 mpk (n=12); Eight lean male ZSF1 rats were used for normal control. Renal functional changes were monitored by blood and urine analysis following in-feed dosing for 28 weeks. Compound exposure was also monitored during the study.

[2] = system: human podocytes; assay: Oris cell migration assay, PAN-induced podocyte motility, fibronectin coated plate; type: cell-based; details: 48 h; for % migrated cells vs control cells: FN plate
Protocol: The effects of Compound A on podocyte motility were evaluated using Oris cell migration assay kit in 96-well plates (coated with either vitronectin or fibronectin). The Oris™ Cell Migration Assay is designed with a unique cell seeding stopper or biocompatible gel, detection mask, and stopper tool. These unique plate designs generate highly reproducible results using a microscope, digital imaging system. 7 to 10-day differentiated human podocytes (100 ul of 50,000 cells/ml) were seeded in each well of the ORIS plate. After sitting at room temperature for about 15 minutes, the plate was placed into 37° C. incubator and podocytes were incubated with complete podocyte medium for 24 h. Stoppers from each well (keeping stoppers in 4 wells which were served as time zero control) were carefully removed, medium discarded, and fresh (10% FBS) podocyte medium added to each well. Podocytes were pretreated with Compound A (10 uM to 0.01 nM) for 2 h prior to puromycin animonucleoside (PAN, 30 ug/ml or 15 ug/ml) treatment. Podocytes were then treated with PAN in the presence or absence of Compound A at different concentrations (ranging from 10 uM to 0.01 nM) in 10% FBS medium for 48 h. Podocytes were then fixed with 4% paraformaldehyde in PBS for 30 minutes (adding 50 ul to each well). After discarding the fixative, podocytes were stained with Hoechst 33342 (stock […] working concentration at 5 uM) for 30 min. Podocytes were then washed with PBS three times. Finally, after adding 100 ul of PBS to each well, plate was sealed with a black cover and kept at 4° C. until image analysis. Images of podocyte motility were captured using Acumen eX3 (manufacturer TTP Labtech Ltd. address: Melbourn Science Park, Melbourn, Hertfordshire SG8 6EE, United Kingdom).
Effect of Compound A (“A”) on human podocyte motility was examined using Oris cell migration assay in fibronectin (FN) coated-96-well plate.

[3] = system: male obese ZSF1 rats (diabetic nephropathy model); assay: ZSF1 rat study: kidney collagen I and III immunostaining; type: in vivo
Protocol: as §1
Following deparaffinization and rehydration, each kidney tissue section was processed to identify collagen I and III deposition. The primary antibodies used were rabbit anti-type I collagen polyclonal antibody (Abcam, Cambridge, Mass.) diluted at 2 ug/ml, and rabbit anti-type III collagen polyclonal antibody (Lifespan, Seattle, Wash.) at 3 ug/ml. The signal was developed by using Super PicTure HRP Polymer Rabbit Primary kit (Invitrogen) and the slides were counterstained with hematoxylin. The Aperio ScanScope XT Slide Scanner (Aperio Technologies, Vista, Calif.) system was used to capture whole slide digital images with a 20× objective. Digital images were managed using Aperio Spectrum. The positive stains were identified and quantified using a macro created from a color deconvolution algorithm (Aperio Technologies, Vista, Calif.).

[4] = obese ZSF1 rats, 400 mpk in-feed, week 28

IC50 ([2]; Homo sapiens, fibronectin coated plates, PAN 15 ug/ml, read-out: IC50, inhibition of puromycin-induced human podocyte motility): 1.12 nM
SMILES: COc1ccc([C@H](CC(=O)O)N2CCN(CCCc3ccc4c(n3)NCCC4)C2=O)cn1 [Compound A, 3-{2-Oxo-3-[3-(5,6,7,8-tetrahydro-[1,8]naphthyridin-2-yl)-propyl]imidazolidin-1-yl}-3 (S)-(6-methoxy-pyridin-3-yl)-propionic acid]
effect on urinary protein/creatinine ratio (UPCR) ([1]; 400 mpk, 16-, 21-, 24- and 28-week of treatment): significantly decreased | effect on 24 h urinary protein excretion ([1]; 400 mpk, 16-, 24- and 28-week of treatment): significantly decreased | renal protection: proteinuria and albuminuria ([1]; ZSF-1 rats vs untreated obese ZSF-1 rats (summary)): ameliorating proteinuria and albuminuria | 24 h Urinary Protein Excretion ([1]; 60 mpk in-feed, week 1): 137.2 ± 12.7 mg/24 h | UPCR (urinary protein/creatinine ratio) ([1]; 60 mpk in-feed, week 1): 12.3 ± 1.0 mg/mg | 24 h Urinary Protein Excretion ([1]; 60 mpk in-feed, week 2): 139.6 ± 11.8 mg/24 h | UPCR (urinary protein/creatinine ratio) ([1]; 60 mpk in-feed, week 2): 11.9 ± 1.0 mg/mg | 24 h Urinary Protein Excretion ([1]; 60 mpk in-feed, week 4): 158.4 ± 13.7 mg/24 h | UPCR (urinary protein/creatinine ratio) ([1]; 60 mpk in-feed, week 4): 13.4 ± 1.1 mg/mg | 24 h Urinary Protein Excretion ([1]; 60 mpk in-feed, week 6): 197.9 ± 15.7 mg/24 h | UPCR (urinary protein/creatinine ratio) ([1]; 60 mpk in-feed, week 6): 16.6 ± 1.2 mg/mg | 24 h Urinary Protein Excretion ([1]; 60 mpk in-feed, week 8): 265.7 ± 18.3 mg/24 h | UPCR (urinary protein/creatinine ratio) ([1]; 60 mpk in-feed, week 8): 20.2 ± 1.4 mg/mg | 24 h Urinary Protein Excretion ([1]; 60 mpk in-feed, week 12): 425.3 ± 21.6 mg/24 h | UPCR (urinary protein/creatinine ratio) ([1]; 60 mpk in-feed, week 12): 30.8 ± 1.7 mg/mg | 24 h Urinary Protein Excretion ([1]; 60 mpk in-feed, week 16): 462.2 ± 30.4 mg/24 h | UPCR (urinary protein/creatinine ratio) ([1]; 60 mpk in-feed, week 16): 27.3 ± 1.7 mg/mg | 24 h Urinary Protein Excretion ([1]; 60 mpk in-feed, week 21): 486.2 ± 39.2 mg/24 h | UPCR (urinary protein/creatinine ratio) ([1]; 60 mpk in-feed, week 21): 27.7 ± 2.0+ mg/mg | 24 h Urinary Protein Excretion ([1]; 60 mpk in-feed, week 24): 582.0 ± 43.9 mg/24 h | UPCR (urinary protein/creatinine ratio) ([1]; 60 mpk in-feed, week 24): 34.4 ± 2.3 mg/mg | 24 h Urinary Protein Excretion ([1]; 60 mpk in-feed, week 28): 654.3 ± 48.1 mg/24 h | UPCR (urinary protein/creatinine ratio) ([1]; 60 mpk in-feed, week 28): 37.5 ± 2.8 mg/mg | 24 h Urinary Protein Excretion ([1]; 60 mpk in-feed, week −2): 128.8 ± 11.0 mg/24 h | UPCR (urinary protein/creatinine ratio) ([1]; 60 mpk in-feed, week −2): 10.9 ± 0.9 mg/mg | 24 h Urinary Protein Excretion ([1]; 200 mpk in-feed, week 1): 117.7 ± 9.4 mg/24 h | UPCR (urinary protein/creatinine ratio) ([1]; 200 mpk in-feed, week 1): 10.7 ± 0.8 mg/mg | 24 h Urinary Protein Excretion ([1]; 200 mpk in-feed, week 2): 124.9 ± 10.9 mg/24 h | UPCR (urinary protein/creatinine ratio) ([1]; 200 mpk in-feed, week 2): 10.9 ± 1.0 mg/mg | 24 h Urinary Protein Excretion ([1]; 200 mpk in-feed, week 4): 140.0 ± 12.4 mg/24 h | UPCR (urinary protein/creatinine ratio) ([1]; 200 mpk in-feed, week 4): 12.1 ± 1.1 mg/mg | 24 h Urinary Protein Excretion ([1]; 200 mpk in-feed, week 6): 167.1 ± 15.0 mg/24 h | UPCR (urinary protein/creatinine ratio) ([1]; 200 mpk in-feed, week 6): 14.1 ± 1.2 mg/mg | 24 h Urinary Protein Excretion ([1]; 200 mpk in-feed, week 8): 233.9 ± 18.7 mg/24 h | UPCR (urinary protein/creatinine ratio) ([1]; 200 mpk in-feed, week 8): 18.0 ± 1.5 mg/mg | 24 h Urinary Protein Excretion ([1]; 200 mpk in-feed, week 12): 400.5 ± 20.5 mg/24 h | UPCR (urinary protein/creatinine ratio) ([1]; 200 mpk in-feed, week 12): 28.7 ± 1.6 mg/mg | 24 h Urinary Protein Excretion ([1]; 200 mpk in-feed, week 16): 452.2 ± 27.6 mg/24 h | UPCR (urinary protein/creatinine ratio) ([1]; 200 mpk in-feed, week 16): 26.3 ± 1.5 mg/mg | 24 h Urinary Protein Excretion ([1]; 200 mpk in-feed, week 21): 489.0 ± 28.6 mg/24 h | UPCR (urinary protein/creatinine ratio) ([1]; 200 mpk in-feed, week 21): 28.1 ± 1.6+ mg/mg | 24 h Urinary Protein Excretion ([1]; 200 mpk in-feed, week 24): 541.6 ± 32.3 mg/24 h | UPCR (urinary protein/creatinine ratio) ([1]; 200 mpk in-feed, week 24): 32.0 ± 1.9 mg/mg | 24 h Urinary Protein Excretion ([1]; 200 mpk in-feed, week 28): 646.2 ± 44.6 mg/24 h | UPCR (urinary protein/creatinine ratio) ([1]; 200 mpk in-feed, week 28): 36.5 ± 2.3 mg/mg | 24 h Urinary Protein Excretion ([1]; 200 mpk in-feed, week −2): 122.3 ± 9.5 mg/24 h | UPCR (urinary protein/creatinine ratio) ([1]; 200 mpk in-feed, week −2): 10.7 ± 0.9 mg/mg | 24 h Urinary Protein Excretion ([1]; 400 mpk in-feed, week 1): 138.5 ± 11.3 mg/24 h | UPCR (urinary protein/creatinine ratio) ([1]; 400 mpk in-feed, week 1): 12.3 ± 0.9 mg/mg | 24 h Urinary Protein Excretion ([1]; 400 mpk in-feed, week 2): 148.8 ± 12.3 mg/24 h | UPCR (urinary protein/creatinine ratio) ([1]; 400 mpk in-feed, week 2): 12.5 ± 0.9 mg/mg | 24 h Urinary Protein Excretion ([1]; 400 mpk in-feed, week 4): 148.0 ± 8.3 mg/24 h | UPCR (urinary protein/creatinine ratio) ([1]; 400 mpk in-feed, week 4): 12.7 ± 0.6 mg/mg | 24 h Urinary Protein Excretion ([1]; 400 mpk in-feed, week 6): 162.6 ± 11.7 mg/24 h | UPCR (urinary protein/creatinine ratio) ([1]; 400 mpk in-feed, week 6): 13.8 ± 0.9 mg/mg | 24 h Urinary Protein Excretion ([1]; 400 mpk in-feed, week 8): 224.8 ± 16.3 mg/24 h | UPCR (urinary protein/creatinine ratio) ([1]; 400 mpk in-feed, week 8): 17.8 ± 1.2 mg/mg | 24 h Urinary Protein Excretion ([1]; 400 mpk in-feed, week 12): 358.4 ± 19.9 mg/24 h | UPCR (urinary protein/creatinine ratio) ([1]; 400 mpk in-feed, week 12): 26.9 ± 1.5 mg/mg | 24 h Urinary Protein Excretion ([1]; 400 mpk in-feed, week 16): 360.5 ± 19.7++ mg/24 h | UPCR (urinary protein/creatinine ratio) ([1]; 400 mpk in-feed, week 16): 20.9 ± 1.0++ mg/mg | 24 h Urinary Protein Excretion ([1]; 400 mpk in-feed, week 21): 448.1 ± 19.6 mg/24 h | UPCR (urinary protein/creatinine ratio) ([1]; 400 mpk in-feed, week 21): 26.0 ± 1.3++ mg/mg | 24 h Urinary Protein Excretion ([1]; 400 mpk in-feed, week 24): 483.8 ± 27.1++ mg/24 h | UPCR (urinary protein/creatinine ratio) ([1]; 400 mpk in-feed, week 24): 28.1 ± 1.7++ mg/mg | 24 h Urinary Protein Excretion ([1]; 400 mpk in-feed, week 28): 554.9 ± 28.3++ mg/24 h | UPCR (urinary protein/creatinine ratio) ([1]; 400 mpk in-feed, week 28): 31.2 ± 1.7++ mg/mg | 24 h Urinary Protein Excretion ([1]; 400 mpk in-feed, week −2): 127.0 ± 11.0 mg/24 h | UPCR (urinary protein/creatinine ratio) ([1]; 400 mpk in-feed, week −2): 10.8 ± 0.9 mg/mg | % migrated cells vs control cells ([2]; PAN 15 ug/ml + A 0.01 nM): 76.3% | % migrated cells vs control cells ([2]; PAN 15 ug/ml + A 0.0316 nM): 80.3% | % migrated cells vs control cells ([2]; PAN 15 ug/ml + A 0.1 nM): 84.9% | % migrated cells vs control cells ([2]; PAN 15 ug/ml + A 0.316 nM): 83.6% | % migrated cells vs control cells ([2]; PAN 15 ug/ml + A 1 nM): 72.9% | % migrated cells vs control cells ([2]; PAN 15 ug/ml + A 3.16 nM): 64.8% | % migrated cells vs control cells ([2]; PAN 15 ug/ml + A 10 nM): 54.1% | % migrated cells vs control cells ([2]; PAN 15 ug/ml + A 100 nM): 35.8% | % migrated cells vs control cells ([2]; PAN 15 ug/ml + A 1 uM): 36.3% | % migrated cells vs control cells ([2]; PAN 15 ug/ml + A 10 uM): 33.1% | effect on kidney collagen I protein levels vs Obese Vehicle ([3]; 400 mpk at week 28): significantly decreased | effect on kidney collagen III protein levels vs Obese Vehicle ([3]; 400 mpk at week 28): significantly decreased | kidney collagen I protein levels ([3]; obese ZSF1 rats, 200 mpk in-feed, week 28): 39.79 ± 0.82 % of area | kidney collagen I protein levels [3, 4]: 36.45 ± 0.85 % of area | kidney collagen III protein levels [3, 4]: 19.23 ± 0.76 % of area
